Values quoted from earlier work as cited in patent US8747385B2, “Methods and compositions to treat myocardial conditions” (Abbott Cardiovascular Systems Inc., priority 2003, dated 2014).

Row | SMILES | O2 solubility at 37° C. [V %]
1 | FC(F)(F)C(F)(F)C(F)(F)C(F)(F)CCC(F)(F)C(F)(F)C(F)(F)C(F)(F)F [F-44E, 1,2-bis(perfluorobutyl)ethane] | 50
2 | FC1(F)C(F)(F)C(F)(F)C2(F)C(F)(F)C(F)(F)C(F)(F)C(F)(F)C2(F)C1(F)F (centres unmarked) [FDC, Perfluorodecalin] | 45
